From patent US8314143B2, “Synthetic flavonoids and pharmaceutical compositions and therapeutic methods of treatment of HIV infection and other pathologies” (Florida A&M University, priority 2006, dated 2012)
“And” between values parts separate entries of the source, which are not always exact repeats. Equal entries are not always repeated. “Also recorded” adds a separate entry of the source.

Key:
Assay type in all cases: cell-based
[1] = system: H-9 cells; assay: Cytoxicity on H-9 cells (drug inhibition, cell count); details: for H-9 Mean (drug inhibition): Table 4 summary; for % Inhibition Mean / Cells (×10^4) Mean / % Inhibition / Cells (×10^4): Exp. Dec. 05 to Dec. 09, 2005; for % Inhibition / Cells (×10^4): single replicates; for inhibitory activity compared to AZT: same conditions as AZT
Excerpt: (§1) The purified and identified analogs were subjected to in vitro biological testing. […] These three congeners were further evaluated in H9 and PC3 cells. AZT was employed as a positive control in all of these experiments.

[2] = system: MCF-7 cells; assay: Cytoxicity on MCF-7 cells (drug inhibition, cell count); set-up: Drug Inhibition on MCF-7 Cells / MCF-7 Mean (drug inhibition) / Drug inhibition on MCF-7 Cells Mean: unit not given here; details: MCF-7 cells; for Drug Inhibition on MCF-7 Cells: Table 8 summary; for % Inhibition Mean / Cells (×10^4) Mean / % Inhibition / Cells (×10^4): Exp. Nov. 14 to Nov. 18, 2005; for % Inhibition / Cells (×10^4): single replicates; for inhibitory activity compared to AZT: same conditions as AZT
Excerpt: as §1

[3] = system: PC-3 cells; assay: Cytoxicity on PC-3 cells (drug inhibition, cell count); details: for Drug Inhibition on PC-3 cells: Table 7; for % Inhibition Mean / Cells (×10^4) Mean / % Inhibition / Cells (×10^4): Exp. Nov. 11 to Nov. 17, 2005; for % Inhibition / Cells (×10^4): single replicates; for inhibitory activity compared to AZT: same conditions as AZT
Excerpt: The purified and identified analogs were subjected to in vitro biological testing.

COc1ccc(C=CC(=O)c2cc(Br)cc(Br)c2O)cc1OC [CHBr 2M]
H-9 Mean (drug inhibition) ([1]; 1 μg/ml): 5.64 | % Inhibition Mean ([1]; 1 μg/ml): 5.64% | Cells (×10^4) Mean ([1]; 1 μg/ml): 47.42 ×10^4 | % Inhibition ([1]; 1 μg/ml): 9.45% and 1.49% and 5.97% | Cells (×10^4) ([1]; 1 μg/ml): 45.5 ×10^4 and 49.5 ×10^4 and 47.3 ×10^4 | H-9 Mean (drug inhibition) ([1]; 5 μg/ml): 49.59 | % Inhibition Mean ([1]; 5 μg/ml): 49.59% | Cells (×10^4) Mean ([1]; 5 μg/ml): 25.33 ×10^4 | % Inhibition ([1]; 5 μg/ml): 49.25% and 50.76% and 48.76% | Cells (×10^4) ([1]; 5 μg/ml): 25.5 ×10^4 and 24.8 ×10^4 and 25.8 ×10^4 | H-9 Mean (drug inhibition) ([1]; 10 μg/ml): 65.01 | % Inhibition Mean ([1]; 10 μg/ml): 65.01% | Cells (×10^4) Mean ([1]; 10 μg/ml): 17.58 ×10^4 | % Inhibition ([1]; 10 μg/ml): 63.68% and 67.66% and 63.88% | Cells (×10^4) ([1]; 10 μg/ml): 18.3 ×10^4 (2×) and 16.3 ×10^4 | H-9 Mean (drug inhibition) ([1]; 50 μg/ml): 76.95 | % Inhibition Mean ([1]; 50 μg/ml): 76.95% | Cells (×10^4) Mean ([1]; 50 μg/ml): 11.58 ×10^4 | % Inhibition ([1]; 50 μg/ml): 76.62% and 77.11% | Cells (×10^4) ([1]; 50 μg/ml): 11.8 ×10^4 and 11.5 ×10^4 (2×) | inhibitory activity compared to AZT [1]: much superior inhibitory activities; also recorded: as good or somewhat better | response to MCF-7 cells in the different drug concentrations [2]: good activities | Drug Inhibition on MCF-7 Cells ([2]; 1 μg/ml): 15.13 | % Inhibition Mean ([2]; 1 μg/ml): 15.13% | Cells (×10^4) Mean ([2]; 1 μg/ml): 49.08 ×10^4 | % Inhibition ([2]; 1 μg/ml): 15.71% and 10.95% and 18.73% | Cells (×10^4) ([2]; 1 μg/ml): 48.6 ×10^4 and 51.5 ×10^4 and 47.0 ×10^4 | Drug Inhibition on MCF-7 Cells ([2]; 5 μg/ml): 54.61 | % Inhibition Mean ([2]; 5 μg/ml): 54.61% | Cells (×10^4) Mean ([2]; 5 μg/ml): 26.25 ×10^4 | % Inhibition ([2]; 5 μg/ml): 53.31% and 56.34% and 54.18% | Cells (×10^4) ([2]; 5 μg/ml): 27.0 ×10^4 and 25.3 ×10^4 and 26.5 ×10^4 | Drug Inhibition on MCF-7 Cells ([2]; 10 μg/ml): 86.31 | % Inhibition Mean ([2]; 10 μg/ml): 86.31% | Cells (×10^4) Mean ([2]; 10 μg/ml): 7.92 ×10^4 | % Inhibition ([2]; 10 μg/ml): 87.46% and 84.44% and 87.03% | Cells (×10^4) ([2]; 10 μg/ml): 7.3 ×10^4 and 9.0 ×10^4 and 7.5 ×10^4 | Drug Inhibition on MCF-7 Cells ([2]; 50 μg/ml): 98.709 | % Inhibition Mean ([2]; 50 μg/ml): 98.70% | Cells (×10^4) Mean ([2]; 50 μg/ml): 0.75 ×10^4 | % Inhibition ([2]; 50 μg/ml): 98.70% and 98.27% and 99.14% | Cells (×10^4) ([2]; 50 μg/ml): 0.8 ×10^4 and 1.0 ×10^4 and 0.5 ×10^4 | inhibitory activity compared to AZT [2]: much superior inhibitory activities; also recorded: as good or somewhat better | Drug Inhibition on PC-3 cells ([3]; 1 μg/ml): 47.1 | % Inhibition Mean ([3]; 1 μg/ml): 27.64% | Cells (×10^4) Mean ([3]; 1 μg/ml): 70.92 ×10^4 | % Inhibition ([3]; 1 μg/ml): 25.26% and 26.53% and 31.12% | Cells (×10^4) ([3]; 1 μg/ml): 73.3 ×10^4 and 72.0 ×10^4 and 67.5 ×10^4 | Drug Inhibition on PC-3 cells ([3]; 5 μg/ml): 65.88 | % Inhibition Mean ([3]; 5 μg/ml): 27.72% | Cells (×10^4) Mean ([3]; 5 μg/ml): 70.83 ×10^4 | Cells (×10^4) ([3]; 5 μg/ml): 75.5 ×10^4 and 68.0 ×10^4 and 69.0 ×10^4 | Drug Inhibition on PC-3 cells ([3]; 10 μg/ml): 78.04 | % Inhibition Mean ([3]; 10 μg/ml): 26.28% | Cells (×10^4) Mean ([3]; 10 μg/ml): 72.25 ×10^4 | Drug Inhibition on PC-3 cells ([3]; 50 μg/ml): 89.50 | % Inhibition Mean ([3]; 50 μg/ml): 42.86% | Cells (×10^4) Mean ([3]; 50 μg/ml): 56.00 ×10^4 | % Inhibition ([3]; 50 μg/ml): 41.33% and 45.92% | Cells (×10^4) ([3]; 50 μg/ml): 57.5 ×10^4 (2×) and 53.0 ×10^4 | inhibitory activity compared to AZT [3]: much superior inhibitory activities; also recorded: as good or somewhat better

COc1ccc(C=CC(=O)c2cc(Cl)cc(Cl)c2O)cc1OC [CHCl 2M]
H-9 Mean (drug inhibition) ([1]; 1 μg/ml): 15.92 | % Inhibition Mean ([1]; 1 μg/ml): 15.92% | Cells (×10^4) Mean ([1]; 1 μg/ml): 42.25 ×10^4 | % Inhibition ([1]; 1 μg/ml): 16.42% and 15.92% and 15.42% | Cells (×10^4) ([1]; 1 μg/ml): 42.0 ×10^4 and 42.3 ×10^4 and 42.6 ×10^4 | H-9 Mean (drug inhibition) ([1]; 5 μg/ml): 52.24 | % Inhibition Mean ([1]; 5 μg/ml): 52.24% | Cells (×10^4) Mean ([1]; 5 μg/ml): 24.00 ×10^4 | % Inhibition ([1]; 5 μg/ml): 52.24% and 52.74% and 51.74% | Cells (×10^4) ([1]; 5 μg/ml): 24.0 ×10^4 and 23.8 ×10^4 and 24.3 ×10^4 | H-9 Mean (drug inhibition) ([1]; 10 μg/ml): 74.3 | % Inhibition Mean ([1]; 10 μg/ml): 74.30% | Cells (×10^4) Mean ([1]; 10 μg/ml): 12.92 ×10^4 | % Inhibition ([1]; 10 μg/ml): 74.13% and 77.11% and 71.64% | Cells (×10^4) ([1]; 10 μg/ml): 13.0 ×10^4 and 11.5 ×10^4 and 14.3 ×10^4 | H-9 Mean (drug inhibition) ([1]; 50 μg/ml): 91.04 | % Inhibition Mean ([1]; 50 μg/ml): 91.04% | Cells (×10^4) Mean ([1]; 50 μg/ml): 4.50 ×10^4 | % Inhibition ([1]; 50 μg/ml): 92.04% and 91.04% and 90.05% | Cells (×10^4) ([1]; 50 μg/ml): 4.0 ×10^4 and 4.5 ×10^4 and 5.0 ×10^4 | inhibitory activity compared to AZT [1]: much superior inhibitory activities; also recorded: as good or somewhat better | response to MCF-7 cells in the different drug concentrations [2]: good activities | Drug Inhibition on MCF-7 Cells ([2]; 1 μg/ml): 14.55 | % Inhibition Mean ([2]; 1 μg/ml): 14.55% | Cells (×10^4) Mean ([2]; 1 μg/ml): 49.42 ×10^4 | % Inhibition ([2]; 1 μg/ml): 13.98% and 16.14% and 13.54% | Cells (×10^4) ([2]; 1 μg/ml): 49.8 ×10^4 and 48.5 ×10^4 and 50.0 ×10^4 | Drug Inhibition on MCF-7 Cells ([2]; 5 μg/ml): 44.09 | % Inhibition Mean ([2]; 5 μg/ml): 44.09% | Cells (×10^4) Mean ([2]; 5 μg/ml): 32.33 ×10^4 | % Inhibition ([2]; 5 μg/ml): 44.67% and 45.53% and 42.07% | Cells (×10^4) ([2]; 5 μg/ml): 32.0 ×10^4 and 31.5 ×10^4 and 33.5 ×10^4 | Drug Inhibition on MCF-7 Cells ([2]; 10 μg/ml): 81.99 | % Inhibition Mean ([2]; 10 μg/ml): 81.99% | Cells (×10^4) Mean ([2]; 10 μg/ml): 10.42 ×10^4 | % Inhibition ([2]; 10 μg/ml): 82.71% and 81.41% and 81.84% | Cells (×10^4) ([2]; 10 μg/ml): 10.0 ×10^4 and 10.8 ×10^4 and 10.5 ×10^4 | Drug Inhibition on MCF-7 Cells ([2]; 50 μg/ml): 98.70 | % Inhibition Mean ([2]; 50 μg/ml): 98.70% | Cells (×10^4) Mean ([2]; 50 μg/ml): 0.75 ×10^4 | % Inhibition ([2]; 50 μg/ml): 98.27% and 99.14% and 98.70% | Cells (×10^4) ([2]; 50 μg/ml): 1.0 ×10^4 and 0.5 ×10^4 and 0.8 ×10^4 | inhibitory activity compared to AZT [2]: much superior inhibitory activities; also recorded: as good or somewhat better | Drug Inhibition on PC-3 cells ([3]; 1 μg/ml): 42.4 | % Inhibition Mean ([3]; 1 μg/ml): 25.09% | Cells (×10^4) Mean ([3]; 1 μg/ml): 73.42 ×10^4 | % Inhibition ([3]; 1 μg/ml): 24.23% and 24.49% and 26.53% | Cells (×10^4) ([3]; 1 μg/ml): 74.3 ×10^4 and 74.0 ×10^4 and 72.0 ×10^4 | Drug Inhibition on PC-3 cells ([3]; 5 μg/ml): 73.76 | % Inhibition Mean ([3]; 5 μg/ml): 28.57% | Cells (×10^4) Mean ([3]; 5 μg/ml): 70.00 ×10^4 | % Inhibition ([3]; 5 μg/ml): 29.59% and 29.08% and 27.04% | Cells (×10^4) ([3]; 5 μg/ml): 69.0 ×10^4 and 69.5 ×10^4 and 71.5 ×10^4 | Drug Inhibition on PC-3 cells ([3]; 10 μg/ml): 87.02 | % Inhibition Mean ([3]; 10 μg/ml): 29.00% | Cells (×10^4) Mean ([3]; 10 μg/ml): 69.58 ×10^4 | % Inhibition ([3]; 10 μg/ml): 30.61% and 28.57% and 27.81% | Drug Inhibition on PC-3 cells ([3]; 50 μg/ml): 96.96 | % Inhibition Mean ([3]; 50 μg/ml): 36.65% | Cells (×10^4) Mean ([3]; 50 μg/ml): 62.08 ×10^4 | % Inhibition ([3]; 50 μg/ml): 31.88% and 33.16% and 45.41% | Cells (×10^4) ([3]; 50 μg/ml): 67.3 ×10^4 and 65.5 ×10^4 and 53.5 ×10^4 | inhibitory activity compared to AZT [3]: much superior inhibitory activities; also recorded: as good or somewhat better
